Laboratory results: US9944607B2, “Thiohydantoin derivatives and uses thereof” (Whitehead Institute for Biomedical Research, priority 2012, dated 2018)
In brackets after ≈: the same amount, converted by molar mass. Where two headings read alike, the source gives them in different places.

How the values were obtained:
Candida albicans CaCi-2 = assay: Primary assay: C. albicans CaCi-2 growth inhibition (Alamar Blue); type: cell-based; conditions: for Drop in activity / potency relative to hit CID3889161: C. albicans growth inhibition; for Activity against C. albicans: CaCi-2, or both test strains (CaCi-2, CaCi-17) where the sentence names none; for Growth Inhibition Activity, IC50 (μM), C. albicans (n = 3) CaCi-2 / IC50: 48 hours, tested up to 26 μM, n = 3; for IC50: read-out: Growth Inhibition Activity, IC50 (μM), C. albicans (n = 3) CaCi-2
Candida albicans CaCi-17 = assay: Primary assay: C. albicans CaCi-17 growth inhibition (Alamar Blue); type: cell-based; conditions: for Growth Inhibition Activity, IC50 (μM), C. albicans (n = 3) CaCi-17 / IC50: 48 hours, tested up to 26 μM, n = 3; for IC50: read-out: Growth Inhibition Activity, IC50 (μM), C. albicans (n = 3) CaCi-17
[1] = tested on: NIH-3T3 mammalian fibroblasts; assay: Counterscreen mammalian cell toxicity assay (Alamar Blue); type: cell-based, murine; conditions: n = 1, 48 hours, tested up to 26 μM; for IC50: read-out: Growth Inhibition Activity, IC50 (μM), 3T3 Fibroblasts (n = 1)
Method: Quiescent murine fibroblasts were subjected to incubation with compounds of interest for 48 hours. Subsequent cell viability was determined via measuring Alamar Blue fluorescence.
Procedures • After overnight culture, pin compounds into wells at 100 nL/well using the CyBio CyBi-Well pinning instrument. • Return the plates to the tissue culture incubator and incubate the culture for an additional 48 hours at 37° C. under 5% CO2. • At the completion of this incubation, add Alamar Blue solution diluted 1:40 in PBS to each well (10 μL/well) to achieve a final dilution of 1:200. • Incubate the plates for an additional 2-3 hours at 37° C. under 5% CO2. • Read the Relative Fluorescence Intensity (RFU) of wells on a standard plate reader as a measure of relative cell growth. […] 4.4.

[2] = Solubility in PBS pH 7.4 with 1% DMSO; conditions: for solubility at 24 h: phosphate buffered saline with 1% DMSO, pH 7.4, aqueous buffer, kinetic from dmso stock
Method: Solubility was determined in phosphate buffered saline (PBS) pH 7.4 with 1% DMSO. Each compound was prepared in duplicate at 100 μM in both 100% DMSO and PBS with 1% DMSO. Compounds were allowed to equilibrate at room temperature with a 250 rpm orbital shake for 24 hours. After equilibration, samples were analyzed by UPLC-MS (Waters, Milford, Mass.) with compounds detected by SIR detection on a single quadrupole mass spectrometer. The DMSO samples were used to create a two-point calibration curve to which the response in PBS was fit.

[3] = Table 4, PBS pH 7.4 with 1% DMSO, 24 hours, room temperature

SMILES: CCOC(=O)N1C(=O)C2(CCOCC2)N(c2ccc(C)cc2)C1=S [CID 56604818]
- Drop in activity / potency relative to hit CID3889161 (Candida albicans CaCi-2): 100 fold

SMILES: CCOC(=O)N1C(=S)N(c2ccc(C)cc2)C(=O)C12CCCCC2 [CID 56604852]
- Activity against C. albicans (Candida albicans CaCi-2): inactive

SMILES: Cc1ccc(N2C(=S)N(C(=O)Oc3ccccc3)C(=O)C23CCCCC3)cc1 [CID 56604875]
- Activity against C. albicans (Candida albicans CaCi-2): no activity
- Activity against C. albicans CaCi-17 as worded in the text (Candida albicans CaCi-17): no activity

SMILES: CCOC(=O)N1C(=O)C2(CCCCC2)N(Cc2ccccc2)C1=S [CID 56604878]
- Drop in activity / potency relative to hit CID3889161 (Candida albicans CaCi-2): 10 fold

SMILES: Cc1ccc(N2C(=S)NC(=O)C23CCCCC3)cc1 [CID 56604892]
- Activity against C. albicans (Candida albicans CaCi-2): failed to inhibit C. albicans growth

SMILES: Cc1ccc(N2CC(=O)NC2=O)cc1 [compound 759335]
- Growth Inhibition Activity, IC50 (μM), 3T3 Fibroblasts (n = 1) ([1]; Table 7): Inactive
- solubility at 24 h [2]: > 100 µM
- Growth Inhibition Activity, IC50 (μM), C. albicans (n = 3) CaCi-2 (Candida albicans CaCi-2; Table 7): inactive
- Growth Inhibition Activity, IC50 (μM), C. albicans (n = 3) CaCi-17 (Candida albicans CaCi-17; Table 7): inactive

SMILES: O=C1NC(=S)N(c2ccccc2)C12CCCCC2 [compound 823120]
- Growth Inhibition Activity, IC50 (μM), 3T3 Fibroblasts (n = 1) ([1]; Table 7): Inactive
- solubility at 24 h [2]: 79 µM (≈ 20.6 µg/mL)
- Growth Inhibition Activity, IC50 (μM), C. albicans (n = 3) CaCi-2 (Candida albicans CaCi-2; Table 7): inactive
- Growth Inhibition Activity, IC50 (μM), C. albicans (n = 3) CaCi-17 (Candida albicans CaCi-17; Table 7): inactive

SMILES: COC(=O)N1C(=O)C2(CCCCC2)N(c2ccc(C)cc2)C1=S [compound 3951437]
- Growth Inhibition Activity, IC50 (μM), 3T3 Fibroblasts (n = 1) ([1]; Table 3): Inactive
- IC50 (Candida albicans CaCi-2; Table 3): 1.9 µM
- IC50 (Candida albicans CaCi-17; Table 3): 17.1 µM

SMILES: O=C1NC(=S)N(Cc2ccccc2)C12CCCCC2 [compound 14297244]
- Growth Inhibition Activity, IC50 (μM), 3T3 Fibroblasts (n = 1) ([1]; Table 7): Inactive
- solubility at 24 h [2]: > 100 µM
- Growth Inhibition Activity, IC50 (μM), C. albicans (n = 3) CaCi-2 (Candida albicans CaCi-2; Table 7): inactive
- Growth Inhibition Activity, IC50 (μM), C. albicans (n = 3) CaCi-17 (Candida albicans CaCi-17; Table 7): inactive

SMILES: CCOC(=O)N1C(=O)C2(CCCCC2)N(c2ccccc2C)C1=S [compound 24052146]
- Growth Inhibition Activity, IC50 (μM), 3T3 Fibroblasts (n = 1) ([1]; Table 4): Inactive
- PBS Solubility [2, 3]: 18 µM
- IC50 (Candida albicans CaCi-2; Table 4): 1.2 µM
- IC50 (Candida albicans CaCi-17; Table 4): 23.9 µM

SMILES: Cc1ccc(N2C(=S)NC(=O)C23CCC3)cc1 [compound 56604811]
- Growth Inhibition Activity, IC50 (μM), 3T3 Fibroblasts (n = 1) ([1]; Table 7): Inactive
- solubility at 24 h [2]: 62 µM (≈ 15.3 µg/mL)
- Growth Inhibition Activity, IC50 (μM), C. albicans (n = 3) CaCi-2 (Candida albicans CaCi-2; Table 7): inactive
- Growth Inhibition Activity, IC50 (μM), C. albicans (n = 3) CaCi-17 (Candida albicans CaCi-17; Table 7): inactive

SMILES: CCOC(=O)N1C(=O)C2(CCCCC2)N(c2ccc(C(F)(F)F)cc2)C1=S [compound 56604813]
- IC50 ([1]; Table 4): 12.5 µM
- PBS Solubility ([2]; pH 7.4): <1.0 µM
- IC50 (Candida albicans CaCi-2; Table 4): 0.8 µM
- IC50 (Candida albicans CaCi-17; Table 4): 16.2 µM

SMILES: CCCCN1C(=O)C2(CCCCC2)N(c2ccc(C)cc2)C1=S [compound 56604814]
- IC50 ([1]; Table 3): 24.2 µM
- PBS Solubility ([2]; pH 7.4): <1.0 µM
- Growth Inhibition Activity, IC50 (μM), C. albicans (n = 3) CaCi-2 (Candida albicans CaCi-2; Table 3): inactive
- Growth Inhibition Activity, IC50 (μM), C. albicans (n = 3) CaCi-17 (Candida albicans CaCi-17; Table 3): inactive

SMILES: CCOC(=O)N1C(=O)C2(CCCCC2)N(c2ccc(C(C)C)cc2)C1=S [compound 56604817]
- IC50 ([1]; Table 4): 13.8 µM
- PBS Solubility [2, 3]: <1.0 µM
- Growth Inhibition Activity, IC50 (μM), C. albicans (n = 3) CaCi-2 (Candida albicans CaCi-2; Table 4): inactive
- Growth Inhibition Activity, IC50 (μM), C. albicans (n = 3) CaCi-17 (Candida albicans CaCi-17; Table 4): inactive

SMILES: CCOC(=O)N1C(=O)C2(CCOCC2)N(c2ccc(C)cc2)C1=S [compound 56604818]
- Growth Inhibition Activity, IC50 (μM), 3T3 Fibroblasts (n = 1) ([1]; Table 5): Inactive
- PBS Solubility ([2]; pH 7.4): 28.5 µM
- IC50 (Candida albicans CaCi-2; Table 5): 20.6 µM
- Growth Inhibition Activity, IC50 (μM), C. albicans (n = 3) CaCi-17 (Candida albicans CaCi-17; Table 5): inactive
